PubChem BioAssay AID1963841 (Molecular Pharmacology Branch, DTP, NCI, 2024)

System: 439559-082-T-J2-PDC spheroid viability
Assay: Anticancer human tumor 439559-082-T-J2-PDC patient-derived colon adenocarcinoma cell line growth inhibition [POLQ]
Settings: spheroids with HUVEC and MSC; for IC50: curve of first compound; for viability, T/C: stronger effect = lower value
Protocol: Multicellular complex tumor spheroid response to Polymerase (POL) inhibitors (novobiocin, ART-558, RP6685) in combination with a variety of drugs and investigational agents in selected tumor cell lines
The POL inhibitors (novobiocin, ART-558, and RP6685) were evaluated both individually and in combination with standard of care and investigational anticancer small molecules within a complex spheroid model of solid tumors. . Complex spheroids include a stromal component modeled by human endothelial cells (HUVEC) and fibroblasts modeled by human mesenchymal stem cells (MSCs). The concentration ranges selected for each drug and investigational agent were based upon clinically achievable concentrations if the clinical Cmax of the agent was known.
Compounds. The drugs and investigational agents: novobiocin (NSC847541), ART-558 (NSC835418), RP-6685 (NSC848927), peposertib (NSC802822), ceralasertib (NSC780249), elimusertib (NSC800525), camonsertib (NSC841442), AZD-1390 (NSC803789), olaparib (NSC753686), talazoparib (NSC767125), rucaparib (NSC756644), sotorasib (NSC818433), MRTX-1133 (NSC836407), SN-38 (NSC673596), topotecan (NSC609699), epotoside (NSC141540), doxorubicin (NSC123127), gemcitabine (NSC613327), 5-fluorouracil (NSC19893), paclitaxel (NSC125973), vemurafenib (NSC761431), MSA-2 (NSC828583), SN-011 (NSC837082), adavosertib (NSC754352), prexasertib (NSC758257), carboplatin (NSC241240) and oxaliplatin (NSC266046), were obtained from the National Cancer Institute (NCI) Developmental Therapeutics Program Chemical Repository (21). The FDA-approved anticancer drug set is available from the Developmental Therapeutics Program at https://dtp.cancer.gov/organization/dscb/obtaining/. […] The stock solutions were prepared in dimethyl sulfoxide (DMSO, Sigma-Aldrich, St. Louis, MO, cat. D2650), except for the platinum compounds which were prepared in saline (Quality Biological, Gaithersburg, MD, cat. 114-055-101), at 800-fold the tested concentration and stored at -70 degrees C prior to their use. All drugs and investigational agents were tested over a range starting from a high concentration at or near the clinical Cmax and decreasing in half-log increments. If the clinical Cmax for an agent had not been determined, the highest concentration tested was 10 microM, except for SN-38, which was tested at a high concentration of 1 microM.
Cell Culture. All cells were maintained in an incubator at 37 degrees C and 5% CO2 with 95% humidity. The PDC lines were cultured according to standard operating procedures established by the NCI PDMR (https://pdmr.cancer.gov). Table 3 of the manuscript, lists the cell lines along with the number of the three cell types plated to form the mct-spheroids and media for tumor cell growth. After thawing, all PDC lines, except 997537-175-T-J1-PDC and 415267-285-R-J2-PDC, were cultured in Matrigel-coated flasks prepared with a working solution of 1X Ham's F-12 nutrient mix, without supplementation (Thermo Fisher Scientific, cat. 11765054), 100 U/mL penicillin-streptomycin (Thermo Fisher Scientific, cat. 15140122), and 2.5% Matrigel (Corning Inc., Corning, NY, cat. 354248) for the first three passages. The two PDC lines 997537-175-T-J1-PDC and 415267-285-R-J2-PDC were cultured on uncoated flasks. The 857933-349-R-J2-PDC line was cultured in 6C/Colon 1B media containing advanced DMEM/F-12 (Thermo Fisher Scientific, cat. 12634028), 10 mM HEPES (Thermo Fisher Scientific, cat. 15630080), 1X GlutaMAX supplement (Thermo Fisher Scientific, cat. 35050061), 0.1 mg/mL primocin (InvivoGen, San Diego, CA, cat. ant-pm-2), 10% defined fetal bovine serum, heat inactivated (HyClone Laboratories Inc., Logan, UT, cat. SH30070.03HI), 50% L-WRN conditioned media (ATCC, cat. CRL-3276), 1.25 mM N-Acetyl-L-cysteine (Sigma-Aldrich, cat. A9165), 10 mM nicotinamide (Sigma-Aldrich, cat. N0636), 1X B-27 supplement (Thermo Fisher Scientific, cat. 17504044), 1X N-2 supplement (Thermo Fisher Scientific, cat. […]
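Further: spheroids exposed to compounds for seven days before readout.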
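Wherever viability, T/C is given: 100% = DMSO vehicle control viability.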

## CC(=O)O[C@H]1C(=O)[C@@]2(C)[C@H]([C@H](OC(=O)c3ccccc3)[C@]3(O)C[C@H](OC(=O)[C@H](O)[C@@H](NC(=O)c4ccccc4)c4ccccc4)C(C)=C1C3(C)C)[C@]1(OC(C)=O)CO[C@@H]1C[C@@H]2O + COC1C(OC(N)=O)C(O)C(Oc2ccc3c(O)c(NC(=O)c4ccc(O)c(CC=C(C)C)c4)c(=O)oc3c2C)OC1(C)C
Second compound 0.0316 µM
  IC50: 1050 nM
Second compound 0.1 µM
  IC50: 1480 nM
Second compound 0.316 µM
  IC50: 1380 nM
Second compound 1 µM
  IC50: 1500 nM
Second compound 3.16 µM
  IC50: 1280 nM
Second compound 10 µM
  IC50: 1530 nM
Second compound 0.0316 µM, first compound 0.00949 µM
  viability, T/C: 87.2%
Second compound 0.0316 µM, first compound 0.03 µM
  viability, T/C: 90.8%
Second compound 0.0316 µM, first compound 0.0949 µM
  viability, T/C: 78.8%
Second compound 0.0316 µM, first compound 0.3 µM
  viability, T/C: 77%
Second compound 0.0316 µM, first compound 0.949 µM
  viability, T/C: 49.9%
Second compound 0.0316 µM, first compound 3 µM
  viability, T/C: 39.4%
Second compound 0.1 µM, first compound 0.00949 µM
  viability, T/C: 90.8%
Second compound 0.1 µM, first compound 0.03 µM
  viability, T/C: 88.4%
Second compound 0.1 µM, first compound 0.0949 µM
  viability, T/C: 80.6%
Second compound 0.1 µM, first compound 0.3 µM
  viability, T/C: 75.3%
Second compound 0.1 µM, first compound 0.949 µM
  viability, T/C: 57.1%
Second compound 0.1 µM, first compound 3 µM
  viability, T/C: 37.4%
Second compound 0.316 µM, first compound 0.00949 µM
  viability, T/C: 93.5%
Second compound 0.316 µM, first compound 0.03 µM
  viability, T/C: 89.6%
Second compound 0.316 µM, first compound 0.0949 µM
  viability, T/C: 80.4%
Second compound 0.316 µM, first compound 0.3 µM
  viability, T/C: 71%
Second compound 0.316 µM, first compound 0.949 µM
  viability, T/C: 56.5%
Second compound 0.316 µM, first compound 3 µM
  viability, T/C: 37.1%
Second compound 1 µM, first compound 0.00949 µM
  viability, T/C: 90.1%
Second compound 1 µM, first compound 0.03 µM
  viability, T/C: 87.2%
Second compound 1 µM, first compound 0.0949 µM
  viability, T/C: 79.3%
Second compound 1 µM, first compound 0.3 µM
  viability, T/C: 73%
Second compound 1 µM, first compound 0.949 µM
  viability, T/C: 57.8%
Second compound 1 µM, first compound 3 µM
  viability, T/C: 38.5%
Second compound 3.16 µM, first compound 0.00949 µM
  viability, T/C: 90.3%
Second compound 3.16 µM, first compound 0.03 µM
  viability, T/C: 83.3%
Second compound 3.16 µM, first compound 0.0949 µM
  viability, T/C: 82.3%
Second compound 3.16 µM, first compound 0.3 µM
  viability, T/C: 69.1%
Second compound 3.16 µM, first compound 0.949 µM
  viability, T/C: 53.2%
Second compound 3.16 µM, first compound 3 µM
  viability, T/C: 40.4%
Second compound 10 µM, first compound 0.00949 µM
  viability, T/C: 90.8%
Second compound 10 µM, first compound 0.03 µM
  viability, T/C: 80.1%
Second compound 10 µM, first compound 0.0949 µM
  viability, T/C: 80.5%
Second compound 10 µM, first compound 0.3 µM
  viability, T/C: 74.8%
Second compound 10 µM, first compound 0.949 µM
  viability, T/C: 55%
Second compound 10 µM, first compound 3 µM
  viability, T/C: 40.2%
